Test results as given in PubChem BioAssay AID1963833 (Molecular Pharmacology Branch, DTP, NCI, 2024).

Test system: 883617-216-R-J1-PDC complex spheroid viability
Assay: Anticancer human tumor 883617-216-R-J1-PDC patient-derived bladder carcinoma cell line growth inhibition [POLQ]
Settings: for IC50: curve of first compound; for viability, T/C: stronger effect = lower value; active = viability on the fitted dose curve at most 10% of control; inactive = the rest
Experimental: Multicellular complex tumor spheroid response to Polymerase (POL) inhibitors (novobiocin, ART-558, RP6685) in combination with a variety of drugs and investigational agents in selected tumor cell lines
The POL inhibitors (novobiocin, ART-558, and RP6685) were evaluated both individually and in combination with standard of care and investigational anticancer small molecules within a complex spheroid model of solid tumors. . Complex spheroids include a stromal component modeled by human endothelial cells (HUVEC) and fibroblasts modeled by human mesenchymal stem cells (MSCs). The concentration ranges selected for each drug and investigational agent were based upon clinically achievable concentrations if the clinical Cmax of the agent was known.
Compounds. The drugs and investigational agents: novobiocin (NSC847541), ART-558 (NSC835418), RP-6685 (NSC848927), peposertib (NSC802822), ceralasertib (NSC780249), elimusertib (NSC800525), camonsertib (NSC841442), AZD-1390 (NSC803789), olaparib (NSC753686), talazoparib (NSC767125), rucaparib (NSC756644), sotorasib (NSC818433), MRTX-1133 (NSC836407), SN-38 (NSC673596), topotecan (NSC609699), epotoside (NSC141540), doxorubicin (NSC123127), gemcitabine (NSC613327), 5-fluorouracil (NSC19893), paclitaxel (NSC125973), vemurafenib (NSC761431), MSA-2 (NSC828583), SN-011 (NSC837082), adavosertib (NSC754352), prexasertib (NSC758257), carboplatin (NSC241240) and oxaliplatin (NSC266046), were obtained from the National Cancer Institute (NCI) Developmental Therapeutics Program Chemical Repository (21). The FDA-approved anticancer drug set is available from the Developmental Therapeutics Program at https://dtp.cancer.gov/organization/dscb/obtaining/. […] The stock solutions were prepared in dimethyl sulfoxide (DMSO, Sigma-Aldrich, St. Louis, MO, cat. D2650), except for the platinum compounds which were prepared in saline (Quality Biological, Gaithersburg, MD, cat. 114-055-101), at 800-fold the tested concentration and stored at -70 degrees C prior to their use. All drugs and investigational agents were tested over a range starting from a high concentration at or near the clinical Cmax and decreasing in half-log increments. If the clinical Cmax for an agent had not been determined, the highest concentration tested was 10 microM, except for SN-38, which was tested at a high concentration of 1 microM.
Cell Culture. All cells were maintained in an incubator at 37 degrees C and 5% CO2 with 95% humidity. The PDC lines were cultured according to standard operating procedures established by the NCI PDMR (https://pdmr.cancer.gov). Table 3 of the manuscript, lists the cell lines along with the number of the three cell types plated to form the mct-spheroids and media for tumor cell growth. After thawing, all PDC lines, except 997537-175-T-J1-PDC and 415267-285-R-J2-PDC, were cultured in Matrigel-coated flasks prepared with a working solution of 1X Ham's F-12 nutrient mix, without supplementation (Thermo Fisher Scientific, cat. 11765054), 100 U/mL penicillin-streptomycin (Thermo Fisher Scientific, cat. 15140122), and 2.5% Matrigel (Corning Inc., Corning, NY, cat. 354248) for the first three passages. The two PDC lines 997537-175-T-J1-PDC and 415267-285-R-J2-PDC were cultured on uncoated flasks. The 857933-349-R-J2-PDC line was cultured in 6C/Colon 1B media containing advanced DMEM/F-12 (Thermo Fisher Scientific, cat. 12634028), 10 mM HEPES (Thermo Fisher Scientific, cat. 15630080), 1X GlutaMAX supplement (Thermo Fisher Scientific, cat. 35050061), 0.1 mg/mL primocin (InvivoGen, San Diego, CA, cat. ant-pm-2), 10% defined fetal bovine serum, heat inactivated (HyClone Laboratories Inc., Logan, UT, cat. SH30070.03HI), 50% L-WRN conditioned media (ATCC, cat. CRL-3276), 1.25 mM N-Acetyl-L-cysteine (Sigma-Aldrich, cat. A9165), 10 mM nicotinamide (Sigma-Aldrich, cat. N0636), 1X B-27 supplement (Thermo Fisher Scientific, cat. 17504044), 1X N-2 supplement (Thermo Fisher Scientific, cat. […]

[1] = second compound 0.0316 µM, first compound 0.0316 µM
[2] = second compound 0.0316 µM, first compound 0.1 µM
[3] = second compound 0.0316 µM, first compound 0.316 µM
[4] = second compound 0.0316 µM, first compound 1 µM
[5] = second compound 0.0316 µM, first compound 3.16 µM
[6] = second compound 0.0316 µM, first compound 10 µM
[7] = second compound 0.1 µM, first compound 0.0316 µM
[8] = second compound 0.1 µM, first compound 0.1 µM
[9] = second compound 0.1 µM, first compound 0.316 µM
[10] = second compound 0.1 µM, first compound 1 µM
[11] = second compound 0.1 µM, first compound 3.16 µM
[12] = second compound 0.1 µM, first compound 10 µM
[13] = second compound 0.316 µM, first compound 0.0316 µM
[14] = second compound 0.316 µM, first compound 0.1 µM
[15] = second compound 0.316 µM, first compound 0.316 µM
[16] = second compound 0.316 µM, first compound 1 µM
[17] = second compound 0.316 µM, first compound 3.16 µM
[18] = second compound 0.316 µM, first compound 10 µM
[19] = second compound 1 µM, first compound 0.0316 µM
[20] = second compound 1 µM, first compound 0.1 µM
[21] = second compound 1 µM, first compound 0.316 µM
[22] = second compound 1 µM, first compound 1 µM
[23] = second compound 1 µM, first compound 3.16 µM
[24] = second compound 1 µM, first compound 10 µM
[25] = second compound 3.16 µM, first compound 0.0316 µM
[26] = second compound 3.16 µM, first compound 0.1 µM
[27] = second compound 3.16 µM, first compound 0.316 µM
[28] = second compound 3.16 µM, first compound 1 µM
[29] = second compound 3.16 µM, first compound 3.16 µM
[30] = second compound 3.16 µM, first compound 10 µM
[31] = second compound 10 µM, first compound 0.0316 µM
[32] = second compound 10 µM, first compound 0.1 µM
[33] = second compound 10 µM, first compound 0.316 µM
[34] = second compound 10 µM, first compound 1 µM
[35] = second compound 10 µM, first compound 3.16 µM
[36] = second compound 10 µM, first compound 10 µM
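Also: spheroids exposed to compounds for seven days before readout.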

CC(=O)O[C@H]1C(=O)[C@@]2(C)[C@H]([C@H](OC(=O)c3ccccc3)[C@]3(O)C[C@H](OC(=O)[C@H](O)[C@@H](NC(=O)c4ccccc4)c4ccccc4)C(C)=C1C3(C)C)[C@]1(OC(C)=O)CO[C@@H]1C[C@@H]2O + COC1C(OC(N)=O)C(O)C(Oc2ccc3c(O)c(NC(=O)c4ccc(O)c(CC=C(C)C)c4)c(=O)oc3c2C)OC1(C)C
inactive: viability, T/C (second compound 0.0316 µM, first compound 0.00949 µM) 39.5% | viability, T/C (second compound 0.0316 µM, first compound 0.03 µM) 27.8% | viability, T/C (second compound 0.0316 µM, first compound 0.0949 µM) 26.4% | viability, T/C (second compound 0.0316 µM, first compound 0.3 µM) 20.8% | viability, T/C (second compound 0.0316 µM, first compound 0.949 µM) 18.2% | viability, T/C (second compound 0.0316 µM, first compound 3 µM) 19.8% | viability, T/C (second compound 0.1 µM, first compound 0.00949 µM) 40.2% | viability, T/C (second compound 0.1 µM, first compound 0.03 µM) 34.2% | viability, T/C (second compound 0.1 µM, first compound 0.0949 µM) 23.4% | viability, T/C (second compound 0.1 µM, first compound 0.3 µM) 23.7% | viability, T/C (second compound 0.1 µM, first compound 0.949 µM) 19.6% | viability, T/C (second compound 0.1 µM, first compound 3 µM) 20.7% | viability, T/C (second compound 0.316 µM, first compound 0.00949 µM) 50.6% | viability, T/C (second compound 0.316 µM, first compound 0.03 µM) 27.9% | viability, T/C (second compound 0.316 µM, first compound 0.0949 µM) 25.4% | viability, T/C (second compound 0.316 µM, first compound 0.3 µM) 17.5% | viability, T/C (second compound 0.316 µM, first compound 0.949 µM) 16.1% | viability, T/C (second compound 0.316 µM, first compound 3 µM) 20.6% | viability, T/C (second compound 1 µM, first compound 0.00949 µM) 42.2% | viability, T/C (second compound 1 µM, first compound 0.03 µM) 28.2% | viability, T/C (second compound 1 µM, first compound 0.0949 µM) 19% | viability, T/C (second compound 1 µM, first compound 0.3 µM) 26% | viability, T/C (second compound 1 µM, first compound 0.949 µM) 20.5% | viability, T/C (second compound 1 µM, first compound 3 µM) 15.9% | viability, T/C (second compound 3.16 µM, first compound 0.00949 µM) 42.7% | viability, T/C (second compound 3.16 µM, first compound 0.03 µM) 31.1% | viability, T/C (second compound 3.16 µM, first compound 0.0949 µM) 21.9% | viability, T/C (second compound 3.16 µM, first compound 0.3 µM) 22.7% | viability, T/C (second compound 3.16 µM, first compound 0.949 µM) 23.7% | viability, T/C (second compound 3.16 µM, first compound 3 µM) 17.1% | viability, T/C (second compound 10 µM, first compound 0.00949 µM) 42.2% | viability, T/C (second compound 10 µM, first compound 0.03 µM) 27.1% | viability, T/C (second compound 10 µM, first compound 0.0949 µM) 15.1% | viability, T/C (second compound 10 µM, first compound 0.3 µM) 16% | viability, T/C (second compound 10 µM, first compound 0.949 µM) 21% | viability, T/C (second compound 10 µM, first compound 3 µM) 21.6%
< 9.49 nM: IC50 (second compound 0.0316 µM) | IC50 (second compound 0.1 µM) | IC50 (second compound 0.316 µM) | IC50 (second compound 1 µM) | IC50 (second compound 3.16 µM) | IC50 (second compound 10 µM)

COc1cc(C2c3cc4c(cc3C(OC3OC5COC(C)OC5C(O)C3O)C3COC(=O)C23)OCO4)cc(OC)c1O (stereo unspecified) + COC1C(OC(N)=O)C(O)C(Oc2ccc3c(O)c(NC(=O)c4ccc(O)c(CC=C(C)C)c4)c(=O)oc3c2C)OC1(C)C
inactive: viability, T/C [1] 96.1% | viability, T/C [2] 90% | viability, T/C [3] 74.3% | viability, T/C [4] 61.8% | viability, T/C [5] 59.5% | viability, T/C [6] 51.7% | viability, T/C [7] 109% | viability, T/C [8] 89.6% | viability, T/C [9] 71.1% | viability, T/C [10] 69% | viability, T/C [11] 51.2% | viability, T/C [12] 59.3% | viability, T/C [13] 87% | viability, T/C [14] 90.2% | viability, T/C [15] 78.9% | viability, T/C [16] 72.2% | viability, T/C [17] 70.8% | viability, T/C [18] 51% | viability, T/C [19] 97% | viability, T/C [20] 89.5% | viability, T/C [21] 72.9% | viability, T/C [22] 57.9% | viability, T/C [23] 57.3% | viability, T/C [24] 48.9% | viability, T/C [25] 106% | viability, T/C [26] 92.1% | viability, T/C [27] 72.7% | viability, T/C [28] 65.7% | viability, T/C [29] 57.4% | viability, T/C [30] 52.7% | viability, T/C [31] 97.2% | viability, T/C [32] 95.4% | viability, T/C [33] 73% | viability, T/C [34] 59.8% | viability, T/C [35] 55.6% | viability, T/C [36] 53%
> 10000 nM: IC50 (second compound 0.0316 µM) | IC50 (second compound 0.1 µM) | IC50 (second compound 0.316 µM) | IC50 (second compound 1 µM) | IC50 (second compound 3.16 µM) | IC50 (second compound 10 µM)

COc1cccc2c1C(=O)c1c(O)c3c(c(O)c1C2=O)CC(O)(C(=O)CO)CC3OC1CC(N)C(O)C(C)O1 (stereo unspecified) + COC1C(OC(N)=O)C(O)C(Oc2ccc3c(O)c(NC(=O)c4ccc(O)c(CC=C(C)C)c4)c(=O)oc3c2C)OC1(C)C
214 nM: IC50 (second compound 1 µM)
251 nM: IC50 (second compound 0.316 µM)
186 nM: IC50 (second compound 0.0316 µM)
151 nM: IC50 (second compound 10 µM)
308 nM: IC50 (second compound 3.16 µM)
active: viability, T/C [4] 4.36% | viability, T/C [5] 0.76% | viability, T/C [6] 0.26% | viability, T/C [10] 6% | viability, T/C [11] 0.55% | viability, T/C [12] 0.43% | viability, T/C [16] 6.74% | viability, T/C [17] 1.39% | viability, T/C [18] 1.91% | viability, T/C [22] 3.27% | viability, T/C [23] 0.35% | viability, T/C [24] 1.2% | viability, T/C [28] 4.18% | viability, T/C [29] 1.17% | viability, T/C [30] 0.37% | viability, T/C [34] 5% | viability, T/C [35] 0.8% | viability, T/C [36] 0.3%
320 nM: IC50 (second compound 0.1 µM)
inactive: viability, T/C [1] 62.3% | viability, T/C [2] 49.8% | viability, T/C [3] 45.3% | viability, T/C [7] 67.3% | viability, T/C [8] 59.6% | viability, T/C [9] 50.8% | viability, T/C [13] 70.4% | viability, T/C [14] 58.2% | viability, T/C [15] 47.5% | viability, T/C [19] 73.9% | viability, T/C [20] 55% | viability, T/C [21] 45% | viability, T/C [25] 61.1% | viability, T/C [26] 48.6% | viability, T/C [27] 50% | viability, T/C [31] 59.5% | viability, T/C [32] 50.9% | viability, T/C [33] 41.5%
